From US20230338342A1, “METHODS OF TREATING RIBONUCLEOTIDE REDUCTASE-RELATED DISEASES WITH A RIBONUCLEOTIDE REDUCTASE INHIBITOR” (Taiho Pharmaceutical Co., Ltd., priority 2020, published 2023)

Legend:
RNR = target: T1, RNR (Homo sapiens, UniProt P23921+P31350); conditions: background art; cited from earlier work
T1 sequence (P23921 1-792): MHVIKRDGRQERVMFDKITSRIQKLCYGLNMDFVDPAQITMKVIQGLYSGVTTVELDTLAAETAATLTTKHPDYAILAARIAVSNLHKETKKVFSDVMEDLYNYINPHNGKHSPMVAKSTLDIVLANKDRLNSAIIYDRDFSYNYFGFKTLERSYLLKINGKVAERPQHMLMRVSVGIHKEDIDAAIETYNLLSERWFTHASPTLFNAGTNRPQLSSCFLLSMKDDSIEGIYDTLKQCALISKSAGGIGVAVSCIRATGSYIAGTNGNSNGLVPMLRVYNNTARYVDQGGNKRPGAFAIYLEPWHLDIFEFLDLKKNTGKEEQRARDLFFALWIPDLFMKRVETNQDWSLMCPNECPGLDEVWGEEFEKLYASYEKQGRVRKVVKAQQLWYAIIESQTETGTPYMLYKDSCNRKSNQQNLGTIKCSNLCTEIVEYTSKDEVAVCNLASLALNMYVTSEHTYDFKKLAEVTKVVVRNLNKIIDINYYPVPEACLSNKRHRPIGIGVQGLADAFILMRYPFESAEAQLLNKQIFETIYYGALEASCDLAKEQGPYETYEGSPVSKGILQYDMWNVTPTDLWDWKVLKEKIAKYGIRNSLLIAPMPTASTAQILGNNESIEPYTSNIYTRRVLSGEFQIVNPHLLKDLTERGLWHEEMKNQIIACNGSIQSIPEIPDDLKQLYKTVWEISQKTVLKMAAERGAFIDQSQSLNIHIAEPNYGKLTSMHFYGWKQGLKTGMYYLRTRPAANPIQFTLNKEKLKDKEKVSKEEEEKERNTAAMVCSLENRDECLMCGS
T1 sequence (P31350 1-389): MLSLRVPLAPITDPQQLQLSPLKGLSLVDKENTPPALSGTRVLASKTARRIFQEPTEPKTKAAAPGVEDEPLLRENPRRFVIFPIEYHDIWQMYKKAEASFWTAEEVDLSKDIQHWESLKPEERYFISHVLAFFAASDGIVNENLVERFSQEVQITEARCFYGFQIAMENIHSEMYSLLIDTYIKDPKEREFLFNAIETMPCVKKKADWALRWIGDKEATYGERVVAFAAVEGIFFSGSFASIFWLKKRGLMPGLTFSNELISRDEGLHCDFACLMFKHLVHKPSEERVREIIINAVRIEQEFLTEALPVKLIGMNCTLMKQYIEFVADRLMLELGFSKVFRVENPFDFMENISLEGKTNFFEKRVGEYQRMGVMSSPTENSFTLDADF

[1] = test system: Human acute myelocytic leukemia (AML) cell line MV-4-11 cells; assay: Anti-tumor effect in MV-4-11 xenograft under various dosing regimens; assay type: in vivo, male nude mice; conditions: for effect of reducing tumor volume (relative tumor volume, RTV): Day 15, vs Control Group
Method: (§1) Anti-tumor Effect and body weight change in Various Dosing Regimens Human acute myelocytic leukemia (AML) cell line MV-4-11 cells (American Type Culture Collection CRL-9591™) were implanted in the right thorax of male nude mice (CLEA Japan, Inc.). After implantation of the tumor, the major axis (mm) and minor axis (mm) of the tumor were measured, and tumor volume (TV) was calculated for each mouse. Then, the mice were assigned to the following groups, Control group (○), Continuous Dosing Group (●: 100 mg/kg/day; ◊: 150 mg/kg/day) and 1-week ON+1-week OFF Dosing Group (▲: 200 mg/kg/day; ◆: 300 mg/kg/day), so that the average TV of each group was equivalent. The day in which the grouping (n=5) was conducted was taken as Day 0.
(§2) 5-chloro-2-(N-((1S,2R)-2-(6-fluoro-2,3-dimetylphenyl)-1-(5-oxo-4,5-dihydro-1,3,4-o xadiazol-2-yl)propyl)sulfamoyl)benzamide (Compound A) was suspended in 5 mg/mL hypromellose solution to provide appropriate test samples for 100 mg/kg, 150 mg/kg, 200 mg/kg, and 300 mg/kg dosing regimen. Animals of the Control group were not treated.
To mice in the Continuous Dosing Group, 100 mg/kg/day or 150 mg/kg/day of Compound A was orally administered once daily from Day 1 to Day 14. The total dosage for mice in the Continuous Dosing Group administered 100 mg/kg/day (Group C-1) is 1400 mg/kg, and the total dosage for mice in the Continuous Dosing Group administered 150 mg/kg/day (Group C-2) is 2100 mg/kg.
To mice in the 1-week ON+1-week OFF Dosing Group, 200 mg/kg/day or 300 mg/ kg/day of Compound A was orally administered once daily from Day 1 to Day 7, and not administered from Day 8 to Day 14, which corresponds to a resting period of 7 days (1 week) for recovery. The total dosage for mice in the 1-week ON+1-week OFF Dosing Group administered 200 mg/kg/day (Group I-1) is 1400 mg/kg, and the total dosage for mice in the 1-week ON+1-week OFF Dosing Group administered 300 mg/ kg/day (Group I-2) are 2100 mg/kg.
On Days 4, 8, 11 and 15, using the following formula: TV (mm^3) = (major axis x minor axis^2) / 2, relative tumor volume (RTV) was calculated as an index of anti-tumor effect during the dosing period for each group (FIG. 1).

[2] = Body weight change as index of toxicity in MV-4-11 tumor-bearing mice; assay type: in vivo, male nude mice; conditions: up to Day 15
Method: as §1
as §2, with “treated. […]” for “treated.”
On the other hand, the body weight (BW) was measured on Days 4, 8, 11 and 15, and the average body weight change (BW change, %) relative to the body weight on Day 0 was calculated by the following formula, as an index of toxicity during the dosing period: BW change (%) = [(BW on Day n) - (BW on Day 0)] / (BW on Day 0) x 100.

22 cell lines = assay: Cell proliferation assay (CellTiter-Glo) and correlation with SLFN11 mRNA expression; assay type: cell-based; conditions: 10 micro mol/L, 3 days of exposure, Pearson's correlation
Source text: The HEL, NUGC-3, and RPMI8226 cell lines were obtained from the Japanese Collection of Research Bioresources. The 786-O, CFPAC-1, DU145, HCC1599, HCC1806, HCC38, HCT116, HL-60, K-562, MSTO-211H, MV-4-11, NCI-H460, NCI-H2170, and THP-1 cell lines were obtained from the ATCC. The A2780 and COLO 792 cell lines were obtained from the European Collection of Authenticated Cell Cultures. The A549, A673, and MCF-7 cell lines were obtained from DS Pharma Biomedical Co., Ltd.
Cell proliferation assay was performed as reported previously (Hasako, S., et al. Mol Cancer Ther 17, 1648-1658 (2018)). Briefly, cells were plated and incubated for 1 day, followed by 3 days of exposure to the compound. After exposure to Compound A, viable cells were detected by using the CellTiter-Glo luminescent cell viability assay (Promega). The experiment was performed in triplicates.
Correlation analysis of SLFN11 expression and Compound A cytotoxicity was performed using Pearson’s correlation coefficient (P < 0.05) in JMP 13 software. The gene expression data of cell lines were available online CCLE (http://www.broadinstitute.org/ccle/home). Compound A cytotoxicity data from 22 cell lines in Table 5 were used for correlation analysis (data for correlation was not shown).

A673 cells [3] = assay: Cell proliferation assay in A673 cells treated with siRNA against SLFN11; assay type: cell-based; conditions: siSLFN11-1 and siSLFN11-2 vs siControl, 72 h treatment
Method: (§3) A673 cells were transfected with 1 nM siRNAs for 24 h using Lipofectamine® RNAiMAX Reagent (Thermo Fisher Scientific Inc.) and then re-seeded onto a 96-well plate for cell proliferation assay and caspase induction assay and onto dishes for immunoblotting analysis. siRNAs were obtained from Thermo Fisher Scientific Inc. as follows: Silencer® Select Negative Control #1 siRNA (#4390843 used as siControl), SLFN11 Silencer® Select Pre-designed siRNA (#s40703 used as siSLFN11-1, and #s40704 as siSLFN11-2).
Cell proliferation assay was performed as reported previously (Hasako, et al., ibid.). Briefly, cells treated with siRNAs for 24 h were plated onto 96 well plate and incubated for 24 h, followed by 3 days of exposure to the compound. After compound exposure, viable cells were detected by using the CellTiter-Glo luminescent cell viability assay (Promega).

A673 cells [4] = assay: Caspase induction analysis (Caspase-Glo 3/7) in A673 cells treated with siRNA against SLFN11; assay type: cell-based; conditions: A673 cells transfected with siRNA against SLFN11, 24 h treatment
Method: as §3
Caspase induction analysis was performed as reported previously (Hasako., et al., ibid). Briefly, the cells with siRNAs for 24 h were seeded onto 96 well plate, incubated for24 h, and then treated with Compound A for 24 h. Caspase induction was detected by using the Caspase-Glo 3/7 assay (Promega). Relative caspase-3/7 activation was calculated by applying the correction with respect to cell number. The experiment was performed in triplicates.

Structure (SMILES)	RNR inhibitory activity (RNR)	effect of reducing tumor volume (relative tumor volume, RTV) ([1]; 1-week ON+1-week OFF Dosing Group, 200 or 300 mg/kg/day orally once daily Day 1 to Day 7, rest Day 8 to Day 14)	effect of reducing tumor volume (relative tumor volume, RTV) ([1]; Continuous Dosing Group, 100 or 150 mg/kg/day orally once daily Day 1 to Day 14)	effect of reducing tumor volume, Group I-1 compared with Group C-1 ([1]; total dosage 1400 mg/kg, I-1 200 mg/kg/day 1-week ON+1-week OFF vs C-1 100 mg/kg/day continuous)	effect of reducing tumor volume, Group I-2 compared with Group C-2 ([1]; total dosage 2100 mg/kg, I-2 300 mg/kg/day 1-week ON+1-week OFF vs C-2 150 mg/kg/day continuous)	body weight change (BW change) ([2]; 1-week ON+1-week OFF Dosing Group (Groups I-1 and I-2), 200 or 300 mg/kg/day orally Day 1 to Day 7)	body weight change (BW change) ([2]; Continuous Dosing Group (Groups C-1 and C-2), 100 or 150 mg/kg/day orally Day 1 to Day 14)	correlation between SLFN11 mRNA expression and relative cell growth (%) (22 cell lines)	cytotoxic effect (cell growth) after SLFN11 knockdown (A673 cells [3])	caspase-3/7 activation after SLFN11 knockdown (A673 cells [4])
NC(=O)NO [HU, hydroxyurea, reference compound]	weak	–	–	–	–	–	–	–	–	–
Cc1ccc(F)c([C@@H](C)[C@H](NS(=O)(=O)c2ccc(Cl)cc2C(N)=O)c2n[nH]c(=O)o2)c1C [Compound A, 5-chloro-2-(N-((1S,2R)-2-(6-fluoro-2,3-dimetylphenyl)-1-(5-oxo-4,5-dihydro-1,3,4-oxadiazol-2-yl)propyl)sulfamoyl)benzamide]	potent	shows the effect of reducing tumor volume compared with Control Group	shows the effect of reducing tumor volume compared with Control Group	tends to be higher than Group C-1, though the difference is not statistically significant	seems to be similar	shows drastic recovery in body weight	does not show satisfactorily recovery in terms of body weight loss	a significant correlation	SLFN11 knockdown significantly suppressed the cytotoxic effect	suppression of Compound A-induced caspase-3/7 activation
